Assay results reported in ChEMBL document CHEMBL3885861, “Open TG-GATES”.

Species: Rattus norvegicus
Assay: Open TG-GATES - Regimen: Single
Assay type: toxicity, organism-based, Sprague-Dawley
Parameters: regimen Single, gender Male, age 6 weeks
Settings: in vivo, po, route gavage; for APTT / Bas / Eos / Fbg / Hb / Ht / Lym / MCH / MCHC / MCV / Mono / Neu / PT / Plat / RBC / Ret / WBC: tissue Blood; for KIDNEY_L / KIDNEY_R / KIDNEY_TOTAL: tissue Kidney; for LIVER: tissue Liver; for ALP / ALT / AST / BUN / CRE / DBIL / GLC / K / LDH / Na / PL / RALB / TBIL / TC / TG / TP / gamma-GTP: tissue Plasma
[1] = 150 mg/kg, 3 h, dose level Middle
[2] = 150 mg/kg, 6 h, dose level Middle
[3] = 150 mg/kg, 9 h, dose level Middle
[4] = 150 mg/kg, 24 h, dose level Middle
[5] = 450 mg/kg, 3 h, dose level High
[6] = 450 mg/kg, 6 h, dose level High
[7] = 450 mg/kg, 9 h, dose level High
[8] = 450 mg/kg, 24 h, dose level High

CC(CCc1ccccc1)NCC(O)c1ccc(O)c(C(N)=O)c1 (configuration not stated) [LABETALOL]
TERMINAL_BW [1]: 215.7 g | APTT [1]: 16.5 s | Bas [1]: 0% | Eos [1]: 0.8% | Fbg [1]: 263.6 mg/dL | Hb [1]: 12.4 g/dL | Ht [1]: 36.2% | Lym [1]: 77% | MCH [1]: 21.9 pg | MCHC [1]: 34.1% | MCV [1]: 64.2 fL | Mono [1]: 3% | Neu [1]: 18.6% | PT [1]: 13.3 s | Plat [1]: 115.1 x10_4/uL | RBC [1]: 564.6 x10_4/ul | Ret [1]: 8.3% | WBC [1]: 77.1 x10_2/uL | KIDNEY_L [1]: 1 g | KIDNEY_R [1]: 0.9 g | KIDNEY_TOTAL [1]: 1.9 g | LIVER [1]: 9.4 g | ALP [1]: 1401.4 IU/L | ALT [1]: 46 IU/L | AST [1]: 73.6 IU/L | BUN [1]: 12 mg/dL | CRE [1]: 0.2 mg/dL | DBIL [1]: 0.01 mg/dL | GLC [1]: 207.2 mg/dL | K [1]: 3.7 meq/L | LDH [1]: 48.6 IU/L | Na [1]: 142.2 meq/L | PL [1]: 125.2 mg/dL | RALB [1]: 2.5 g/dL | TBIL [1]: 0.042 mg/dL | TC [1]: 70 mg/dL | TG [1]: 49.4 mg/dL | TP [1]: 5.2 g/dL | gamma-GTP [1]: 1.4 IU/L | TERMINAL_BW [2]: 215.9 g | APTT [2]: 15.9 s | Bas [2]: 0% | Eos [2]: 1% | Fbg [2]: 269.8 mg/dL | Hb [2]: 12.5 g/dL | Ht [2]: 36.5% | Lym [2]: 74.6% | MCH [2]: 21.1 pg | MCHC [2]: 34.3% | MCV [2]: 61.7 fL | Mono [2]: 3.6% | Neu [2]: 20.2% | PT [2]: 13.1 s | Plat [2]: 106.3 x10_4/uL | RBC [2]: 593.6 x10_4/ul | Ret [2]: 7.9% | WBC [2]: 81 x10_2/uL | KIDNEY_L [2]: 0.9 g | KIDNEY_R [2]: 0.9 g | KIDNEY_TOTAL [2]: 1.8 g | LIVER [2]: 8.9 g | ALP [2]: 1487.8 IU/L | ALT [2]: 39.4 IU/L | AST [2]: 71 IU/L | BUN [2]: 9.4 mg/dL | CRE [2]: 0.2 mg/dL | DBIL [2]: 0.01 mg/dL | GLC [2]: 199.4 mg/dL | K [2]: 4.2 meq/L | LDH [2]: 44.8 IU/L | Na [2]: 142.8 meq/L | PL [2]: 126 mg/dL | RALB [2]: 2.4 g/dL | TBIL [2]: 0.04 mg/dL | TC [2]: 73.2 mg/dL | TG [2]: 41.8 mg/dL | TP [2]: 5.1 g/dL | gamma-GTP [2]: 1 IU/L | TERMINAL_BW [3]: 213.9 g | APTT [3]: 15.6 s | Bas [3]: 0% | Eos [3]: 0.8% | Fbg [3]: 287.8 mg/dL | Hb [3]: 12.5 g/dL | Ht [3]: 37.1% | Lym [3]: 77.6% | MCH [3]: 21.8 pg | MCHC [3]: 33.7% | MCV [3]: 64.8 fL | Mono [3]: 1.8% | Neu [3]: 19.6% | PT [3]: 13.2 s | Plat [3]: 106.5 x10_4/uL | RBC [3]: 572.4 x10_4/ul | Ret [3]: 8.2% | WBC [3]: 82.4 x10_2/uL | KIDNEY_L [3]: 0.9 g | KIDNEY_R [3]: 0.9 g | KIDNEY_TOTAL [3]: 1.9 g | LIVER [3]: 8.7 g | ALP [3]: 1516.4 IU/L | ALT [3]: 41.4 IU/L | AST [3]: 68.4 IU/L | BUN [3]: 10.2 mg/dL | CRE [3]: 0.2 mg/dL | DBIL [3]: 0.01 mg/dL | GLC [3]: 185.4 mg/dL | K [3]: 3.9 meq/L | LDH [3]: 42.4 IU/L | Na [3]: 144.6 meq/L | PL [3]: 136.6 mg/dL | RALB [3]: 2.6 g/dL | TBIL [3]: 0.036 mg/dL | TC [3]: 77.8 mg/dL | TG [3]: 56.6 mg/dL | TP [3]: 5.5 g/dL | gamma-GTP [3]: 1.2 IU/L | TERMINAL_BW [4]: 223.2 g | APTT [4]: 14.8 s | Bas [4]: 0% | Eos [4]: 1% | Fbg [4]: 345.2 mg/dL | Hb [4]: 13.1 g/dL | Ht [4]: 38.4% | Lym [4]: 71.6% | MCH [4]: 21 pg | MCHC [4]: 34.2% | MCV [4]: 61.4 fL | Mono [4]: 3.8% | Neu [4]: 23% | PT [4]: 12.7 s | Plat [4]: 116.5 x10_4/uL | RBC [4]: 625.6 x10_4/ul | Ret [4]: 8.2% | WBC [4]: 77.1 x10_2/uL | KIDNEY_L [4]: 0.9 g | KIDNEY_R [4]: 0.9 g | KIDNEY_TOTAL [4]: 1.8 g | LIVER [4]: 10.1 g | ALP [4]: 1738.6 IU/L | ALT [4]: 45.6 IU/L | AST [4]: 76 IU/L | BUN [4]: 16.6 mg/dL | CRE [4]: 0.2 mg/dL | DBIL [4]: 0.016 mg/dL | GLC [4]: 180.6 mg/dL | K [4]: 4.3 meq/L | LDH [4]: 72.6 IU/L | Na [4]: 143.2 meq/L | PL [4]: 159.6 mg/dL | RALB [4]: 2.6 g/dL | TBIL [4]: 0.038 mg/dL | TC [4]: 92 mg/dL | TG [4]: 96.4 mg/dL | TP [4]: 5.7 g/dL | gamma-GTP [4]: 1.2 IU/L | TERMINAL_BW [5]: 212.9 g | APTT [5]: 17.6 s | Bas [5]: 0% | Eos [5]: 1% | Fbg [5]: 255.2 mg/dL | Hb [5]: 12.2 g/dL | Ht [5]: 35.8% | Lym [5]: 76% | MCH [5]: 21.5 pg | MCHC [5]: 34.1% | MCV [5]: 62.9 fL | Mono [5]: 3.2% | Neu [5]: 19.4% | PT [5]: 13 s | Plat [5]: 109.9 x10_4/uL | RBC [5]: 569.4 x10_4/ul | Ret [5]: 8.1% | WBC [5]: 70.3 x10_2/uL | KIDNEY_L [5]: 1 g | KIDNEY_R [5]: 0.9 g | KIDNEY_TOTAL [5]: 1.9 g | LIVER [5]: 9.4 g | ALP [5]: 1740.2 IU/L | ALT [5]: 47 IU/L | AST [5]: 73 IU/L | BUN [5]: 13.2 mg/dL | CRE [5]: 0.2 mg/dL | DBIL [5]: 0.01 mg/dL | GLC [5]: 198.4 mg/dL | K [5]: 3.9 meq/L | LDH [5]: 56.8 IU/L | Na [5]: 142.4 meq/L | PL [5]: 124 mg/dL | RALB [5]: 2.4 g/dL | TBIL [5]: 0.04 mg/dL | TC [5]: 68.4 mg/dL | TG [5]: 39.2 mg/dL | TP [5]: 5.2 g/dL | gamma-GTP [5]: 1.4 IU/L | TERMINAL_BW [6]: 216.2 g | APTT [6]: 16.6 s | Bas [6]: 0% | Eos [6]: 1% | Fbg [6]: 288.6 mg/dL | Hb [6]: 12.2 g/dL | Ht [6]: 36.2% | Lym [6]: 75.4% | MCH [6]: 21.9 pg | MCHC [6]: 33.8% | MCV [6]: 64.8 fL | Mono [6]: 2.6% | Neu [6]: 20.4% | PT [6]: 12.6 s | Plat [6]: 112.1 x10_4/uL | RBC [6]: 561 x10_4/ul | Ret [6]: 8.2% | WBC [6]: 89.2 x10_2/uL | KIDNEY_L [6]: 1 g | KIDNEY_R [6]: 0.9 g | KIDNEY_TOTAL [6]: 1.9 g | LIVER [6]: 9 g | ALP [6]: 1401.4 IU/L | ALT [6]: 42.6 IU/L | AST [6]: 69.8 IU/L | BUN [6]: 10 mg/dL | CRE [6]: 0.2 mg/dL | DBIL [6]: 0.006 mg/dL | GLC [6]: 188.8 mg/dL | K [6]: 4.1 meq/L | LDH [6]: 53.4 IU/L | Na [6]: 143.4 meq/L | PL [6]: 131 mg/dL | RALB [6]: 2.5 g/dL | TBIL [6]: 0.038 mg/dL | TC [6]: 78 mg/dL | TG [6]: 23.2 mg/dL | TP [6]: 5.2 g/dL | gamma-GTP [6]: 1 IU/L | TERMINAL_BW [7]: 218.2 g | APTT [7]: 16 s | Bas [7]: 0% | Eos [7]: 0.8% | Fbg [7]: 285 mg/dL | Hb [7]: 12.8 g/dL | Ht [7]: 37.5% | Lym [7]: 75.4% | MCH [7]: 22.6 pg | MCHC [7]: 34.1% | MCV [7]: 66.1 fL | Mono [7]: 2% | Neu [7]: 21.4% | PT [7]: 12.9 s | Plat [7]: 98.6 x10_4/uL | RBC [7]: 567 x10_4/ul | Ret [7]: 8% | WBC [7]: 90.3 x10_2/uL | KIDNEY_L [7]: 0.9 g | KIDNEY_R [7]: 0.9 g | KIDNEY_TOTAL [7]: 1.8 g | LIVER [7]: 8.5 g | ALP [7]: 1515.4 IU/L | ALT [7]: 49.6 IU/L | AST [7]: 71.2 IU/L | BUN [7]: 9 mg/dL | CRE [7]: 0.2 mg/dL | DBIL [7]: 0.01 mg/dL | GLC [7]: 179 mg/dL | K [7]: 4.2 meq/L | LDH [7]: 41.2 IU/L | Na [7]: 144.2 meq/L | PL [7]: 135 mg/dL | RALB [7]: 2.5 g/dL | TBIL [7]: 0.044 mg/dL | TC [7]: 78 mg/dL | TG [7]: 30.6 mg/dL | TP [7]: 5.2 g/dL | gamma-GTP [7]: 1 IU/L | TERMINAL_BW [8]: 219.8 g | APTT [8]: 15.5 s | Bas [8]: 0% | Eos [8]: 1% | Fbg [8]: 290.8 mg/dL | Hb [8]: 13 g/dL | Ht [8]: 38.1% | Lym [8]: 74% | MCH [8]: 21.6 pg | MCHC [8]: 34.2% | MCV [8]: 62.9 fL | Mono [8]: 2.6% | Neu [8]: 22% | PT [8]: 12.6 s | Plat [8]: 115.1 x10_4/uL | RBC [8]: 605.2 x10_4/ul | Ret [8]: 7.5% | WBC [8]: 68.4 x10_2/uL | KIDNEY_L [8]: 1 g | KIDNEY_R [8]: 0.9 g | KIDNEY_TOTAL [8]: 1.9 g | LIVER [8]: 9.6 g | ALP [8]: 1840.6 IU/L | ALT [8]: 44 IU/L | AST [8]: 74 IU/L | BUN [8]: 17.4 mg/dL | CRE [8]: 0.2 mg/dL | DBIL [8]: 0.012 mg/dL | GLC [8]: 167.8 mg/dL | K [8]: 4.7 meq/L | LDH [8]: 55.2 IU/L | Na [8]: 142.2 meq/L | PL [8]: 144.8 mg/dL | RALB [8]: 2.6 g/dL | TBIL [8]: 0.03 mg/dL | TC [8]: 88 mg/dL | TG [8]: 57.8 mg/dL | TP [8]: 5.6 g/dL | gamma-GTP [8]: 1.2 IU/L
